Experiments:
Human mGlu2 = Human mGlu2 (Homo sapiens, UniProt Q14416); assay: mGlu receptor in vitro assay, human mGlu2; type: cell-based
Human mGlu3 = Human mGlu3 (Homo sapiens, UniProt Q14832); assay: mGlu receptor in vitro assay, human mGlu3; type: cell-based
Protocol: Human Embryonic Kidney (HEK-293) cell lines co-expressing rat mGlu receptors 2, 3, 4, 6, 7 or 8 and G protein-coupled inwardly-rectifying potassium (GIRK) channels were grown in Growth Media containing 45% DMEM, 45% F-12, 10% FBS, 20 mM HEPES, 2 mM L-glutamine, antibiotic/antimycotic, non-essential amino acids, 700 μg/mL G418, and 0.6 μg/ml puromycin at 37° C. in the presence of 5% CO2. […] All cell culture reagents were purchased from Invitrogen Corp. (Carlsbad, CA) unless otherwise noted. Calcium assays were used to assess activity of compounds at mGlu1 and mGlu5, as previously described in Engers et al (J. Med. Chem. 2009, 52, 4115-4118). Calcium assays at mGlu3 were performed as described for mGlu5 with the exception that TREx293 mGlu3 Gα15 cells were treated with tetracycline at 20 ng/mL for 20 h prior to assay.
Briefly, cells were plated into 384-well, black-walled, clear-bottomed poly-D-lysine-coated plates at a density of 15,000 cells/20 μL/well in DMEM containing 10% dialyzed FBS, 20 mM HEPES, and 100 units/mL penicillin/streptomycin (assay media). Plated cells were incubated overnight at 37° C. in the presence of 5% CO2. The following day, the medium was exchanged from the cells to assay buffer [Hanks' balanced salt solution (Invitrogen) containing 20 mM HEPES, pH 7.3] using an ELX405 microplate washer (BioTek), leaving 20 μL/well, followed by the addition of 20 μL/well FluoZin2-AM (330 nM final concentration) indicator dye (Invitrogen; prepared as a stock in DMSO and mixed in a 1:1 ratio with Pluronic acid F-127) in assay buffer. Cells were incubated for 1 h at room temperature, and the dye exchanged to assay buffer using an ELX405, leaving 20 μL/well. Test compounds were diluted to 2 times their final desired concentration in assay buffer (0.3% DMSO final concentration). Agonists were diluted in thallium buffer [125 mM sodium bicarbonate (added fresh the morning of the experiment), 1 mM magnesium sulfate, 1.8 mM calcium sulfate, 5 mM glucose, 12 mM thallium sulfate, and 10 mM HEPES, pH 7.3] at 5 times the final concentration to be assayed. Cell plates and compound plates were loaded onto a kinetic imaging plate reader (FDSS 6000 or 7000; Hamamatsu Corporation, Bridgewater, NJ). Appropriate baseline readings were taken (10 images at 1 Hz; excitation, 470±20 nm; emission, 540±30 nm) and test compounds were added in a 20 μL volume and incubated for approximately 2.5 min before the addition of 10 μL of thallium buffer with or without agonist. After the addition of agonist, data were collected for approximately an additional 2.5 min. Data were analyzed using Excel (Microsoft Corp, Redmond, WA). The slope of the fluorescence increase beginning 5 s after thallium/agonist addition and ending 15 s after thallium/agonist addition was calculated, corrected to vehicle and maximal agonist control slope values, and plotted in using either XLfit (ID Business Solutions Ltd) or Prism software (GraphPad Software, San Diego, CA) to generate concentration-response curves. Potencies were calculated from fits using a four-point parameter logistic equation. For concentration-response curve experiments, compounds were serially diluted 1:3 into 10-point concentration response curves and were transferred to daughter plates using an Echo acoustic plate reformatter (Labcyte, Sunnyvale, CA). Test compounds were applied and followed by EC20 concentrations of glutamate.

Sequence of Human mGlu3 (Q14832 23-879): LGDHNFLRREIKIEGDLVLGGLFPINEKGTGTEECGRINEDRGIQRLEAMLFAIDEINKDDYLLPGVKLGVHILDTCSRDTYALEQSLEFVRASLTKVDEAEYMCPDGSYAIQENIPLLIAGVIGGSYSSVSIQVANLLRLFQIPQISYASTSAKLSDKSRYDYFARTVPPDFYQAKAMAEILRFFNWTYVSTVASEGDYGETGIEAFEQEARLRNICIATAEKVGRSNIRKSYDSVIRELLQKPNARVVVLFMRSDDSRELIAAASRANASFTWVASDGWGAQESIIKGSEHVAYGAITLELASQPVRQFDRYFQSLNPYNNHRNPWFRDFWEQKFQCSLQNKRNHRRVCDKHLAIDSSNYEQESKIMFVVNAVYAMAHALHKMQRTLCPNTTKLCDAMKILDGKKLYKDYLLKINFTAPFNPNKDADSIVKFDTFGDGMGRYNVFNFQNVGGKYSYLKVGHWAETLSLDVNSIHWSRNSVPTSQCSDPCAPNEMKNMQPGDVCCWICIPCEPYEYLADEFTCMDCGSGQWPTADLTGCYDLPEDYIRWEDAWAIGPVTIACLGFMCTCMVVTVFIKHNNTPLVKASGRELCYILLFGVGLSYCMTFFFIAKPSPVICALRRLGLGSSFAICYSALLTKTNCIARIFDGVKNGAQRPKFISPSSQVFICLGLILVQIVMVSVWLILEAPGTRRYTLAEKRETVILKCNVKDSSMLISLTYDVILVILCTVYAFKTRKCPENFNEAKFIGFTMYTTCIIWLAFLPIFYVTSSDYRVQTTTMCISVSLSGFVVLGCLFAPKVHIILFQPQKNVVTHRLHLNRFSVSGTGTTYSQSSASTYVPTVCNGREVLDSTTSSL
Sequence of Human mGlu2 (Q14416 19-872): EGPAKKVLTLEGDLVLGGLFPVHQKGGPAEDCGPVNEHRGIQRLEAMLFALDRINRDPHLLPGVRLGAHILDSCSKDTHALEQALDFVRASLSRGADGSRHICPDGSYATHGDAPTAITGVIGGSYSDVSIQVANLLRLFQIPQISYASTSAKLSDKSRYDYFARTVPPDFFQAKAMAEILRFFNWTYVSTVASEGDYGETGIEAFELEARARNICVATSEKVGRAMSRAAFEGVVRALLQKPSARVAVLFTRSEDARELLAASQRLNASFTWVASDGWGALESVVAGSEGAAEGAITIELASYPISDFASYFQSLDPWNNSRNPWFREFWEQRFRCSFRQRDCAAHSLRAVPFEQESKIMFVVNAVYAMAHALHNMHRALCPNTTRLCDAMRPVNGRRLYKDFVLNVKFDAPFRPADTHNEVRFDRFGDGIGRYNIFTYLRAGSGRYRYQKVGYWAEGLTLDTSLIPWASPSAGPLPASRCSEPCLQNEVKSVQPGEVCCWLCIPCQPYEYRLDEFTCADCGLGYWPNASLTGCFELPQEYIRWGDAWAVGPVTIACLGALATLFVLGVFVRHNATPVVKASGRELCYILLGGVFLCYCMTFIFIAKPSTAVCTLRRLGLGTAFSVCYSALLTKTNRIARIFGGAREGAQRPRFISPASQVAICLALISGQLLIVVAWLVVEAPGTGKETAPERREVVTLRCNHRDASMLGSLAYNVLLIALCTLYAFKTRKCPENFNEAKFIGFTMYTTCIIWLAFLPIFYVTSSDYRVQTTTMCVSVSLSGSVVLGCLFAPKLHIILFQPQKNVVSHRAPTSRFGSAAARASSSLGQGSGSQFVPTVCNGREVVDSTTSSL

EC50 (Human mGlu2) [nM]	EC50 (Human mGlu3) [nM]	SMILES
41	1930	COc1c(C(=O)O)cccc1-c1cnc(COc2ccc(C(=O)C3CC3)c(O)c2C)cn1 [compound 78, 3-(5-((4-(Cyclopropanecarbonyl)-3-hydroxy-2-methylphenoxy)methyl)pyrazin-2-yl)-2-methoxybenzoic acid]
228	461	Cc1c(OCCCCSc2cccc(C(=O)O)c2)ccc(C(=O)CC(C)(C)C)c1O [compound 80, 3-((4-(4-(3,3-Dimethylbutanoyl)-3-hydroxy-2-methylphenoxy)butyl)thio)benzoic acid]
423	3000	Cc1c(SCCCCSc2cccc(C(=O)O)c2)ccc(C(=O)CC(C)(C)C)c1O [compound 82, 3-{4-[4-(3,3-Dimethylbutanoyl)-3-hydroxy-2-methylphenylthio]butylthio}benzoic acid]
729	364	COc1cc(C(=O)O)cc(-c2cnc(COc3ccc(C(=O)CC(C)(C)C)c(O)c3C)cn2)c1 [compound 129, 3-(5-((4-(3,3-Dimethylbutanoyl)-3-hydroxy-2-methylphenoxy)methyl)pyrazin-2-yl)-5-methoxybenzoic acid]
243	327	Cc1c(OCc2nnc(-c3cccc(C(=O)O)c3)o2)ccc(C(=O)CC(C)(C)C)c1O [compound 134, 3-(5-((4-(3,3-Dimethylbutanoyl)-3-hydroxy-2-methylphenoxy)methyl)-1,3,4-oxadiazol-2-yl)benzoic acid]
913	3950	Cc1c(OCc2cnc(-c3ccc(C(=O)O)c(F)c3)cn2)ccc(C(=O)CC(C)(C)C)c1O [compound 137, 4-(5-((4-(3,3-Dimethylbutanoyl)-3-hydroxy-2-methylphenoxy)methyl)pyrazin-2-yl)-2-fluorobenzoic acid]
445	104	Cc1c(OCc2cnc(-c3ccc(Cl)c(C(=O)O)c3)cn2)ccc(C(=O)CC(C)(C)C)c1O [compound 138, 2-Chloro-5-(5-((4-(3,3-Dimethylbutanoyl)-3-hydroxy-2-methylphenoxy)methyl)pyrazin-2-yl)benzoic acid]
1750	1080	Cc1c(OCc2cnc(-c3cc(F)cc(C(=O)O)c3)cn2)ccc(C(=O)CC(C)(C)C)c1O [compound 139, 3-(5-((4-(3,3-Dimethylbutanoyl)-3-hydroxy-2-methylphenoxy)methyl)pyrazin-2-yl)-5-fluorobenzoic acid]
547	603	Cc1c(OCc2cnc(-c3ccc(C(=O)O)s3)cn2)ccc(C(=O)CC(C)(C)C)c1O [compound 141, 5-(5-((4-(3,3-Dimethylbutanoyl)-3-hydroxy-2-methylphenoxy)methyl)pyrazin-2-yl)thiophene-2-carboxylic acid]
291	580	Cc1c(OCc2cnc(-c3ccc(C(=O)O)cc3Cl)cn2)ccc(C(=O)CC(C)(C)C)c1O [compound 143, 3-Chloro-4-(5-((4-(3,3-Dimethylbutanoyl)-3-hydroxy-2-methylphenoxy)methyl)pyrazin-2-yl)benzoic acid]
112	89	Cc1cc(C(=O)O)ccc1-c1cnc(COc2ccc(C(=O)CC(C)(C)C)c(O)c2C)cn1 [compound 144, 4-(5-{[4-(3,3-Dimethylbutanoyl)-3-hydroxy-2-methylphenoxy]methyl}pyrazin-2-yl)-3-methylbenzoic acid]
> 10000	> 10000	Cc1c(OCc2cnc(-c3cccc(O)c3)cn2)ccc(C(=O)CC(C)(C)C)c1O [compound 145, 1-(2-Hydroxy-4-{[5-(3-hydroxyphenyl)pyrazin-2-yl]methoxy}-3-methylphenyl)-3,3-dimethylbutan-1-one]

SMILES	EC50 (Human mGlu2) [nM]	EC50 (Human mGlu3) [nM]
COc1ccc(C(=O)O)cc1OCCCCOc1ccc(C(=O)CC(C)(C)C)c(O)c1-c1ccccc1 [compound 131, 3-(4-((5-(3,3-Dimethylbutanoyl)-6-hydroxy-[1,1′-biphenyl]-2-yl)oxy)butoxy)-4-methoxybenzoic acid]	231	1050

— patent US20250179000A1 (Sanford Burnham Prebys Medical Discovery Institute, priority 2021, published 2025)
